Measurements from US12516022B2, “Derivatives of aryl hydrocarbon receptor agonists” (AZORA THERAPEUTICS, INC., priority 2021, dated 2026).

What was measured:
[1] = Stability of indirubin prodrugs in simulated fluids (FaSSIF, FaSSGF), 24 h at 37° C., UPLC-MS; format: physicochemical
Experimental: (§1) 10.41 g fasted state simulated intestinal fluid (FaSSIF) buffer concentrate was dissolved in 240.3 g deionized water and 560 mg FaSSIF powder added. The mixture was stirred until complete dissolution observed. The test compound (approx. 1-3 mg) was placed in 5.00 mL of FaSSIF solution. Samples of the solution with the test compound were taken after 24 hours in at 37° C. (oven-controlled temperature).
as §1, with “36.78” for “10.41”, “gastric” for “intestinal”, “(FaSSGF)” for “(FaSSIF)”, “961.9” for “240.3”, “60” for “560”, “FaSSGF” for “FaSSIF”
UPLC-MS analysis of the samples taken at 24 hours was carried out on a Waters Acquity UPLC system consisting of an Acquity I-Class Sample Manager-FL, Acquity I-Class Binary Solvent Manager and an Acquity UPLC Column Manager. UV detection was afforded using an Acquity UPLC PDA detector (scanning from 210 to 400 nm), whilst mass detection was achieved using an Acquity QDa detector (mass scanning from 100-1250 Da; positive and negative modes simultaneously), and ELS detection was achieved using an Acquity UPLC ELS Detector. A Waters Acquity UPLC BEH C18 column (2.1 Å˜50 mm, […]) was used to separate the analytes. Samples were prepared by dissolution (with or without sonication) into 1 mL of 50% (v/v) MeCN in water. The resulting solutions were then filtered through a […] syringe filter before submitting for analysis. All of the solvents, including formic acid and 36% ammonia solution, were purchased as the HPLC grade.

[2] = Indirubin solubility in biorelevant media (FaSSIF, FaSSGF), HPLC; format: physicochemical; conditions: FaSSGF and FaSSIF
Experimental: Biorelevant media was prepared as per the supplier's (Biorelevant) method, using FaSSIF/FeSSIF/FaSSGF powders. In brief, FaSSGF media was prepared using 0.06 g/L FaSSIF/FeSSIF/FaSSGF powder in 2 g/L NaCl solution, pH adjusted to 1.6 with 1N HCl. FaSSIF media was prepared with 2.24 g/L FaSSIF/FeSSIF/FaSSGF powder in sodium phosphate buffer, pH adjusted to 6.5 with 1N NaOH. (Sodium phosphate buffer prepared as a 0.42 g/L NaOH, 3.95 g/L NaH2PO4·H2O, 6.19 g/L NaCl solution).
Solubility assessments were performed as follows. An individual flask was prepared for each media and time point. Flasks were placed in a shaking water bath kept at 37° C. Flasks were removed from the bath at specified time points of 1 hour, 4 hours and 24 hours, allowed to cool, and an aliquot taken and filtered.

Compound	Fraction (percent) of indirubin ([1]; FaSSGF 37° C. 24 h)	Fraction (percent) of starting material (SM) ([1]; FaSSGF 37° C. 24 h)	Fraction (percent) of indirubin ([1]; FaSSIF 37° C. 24 h)	Fraction (percent) of starting material (SM) ([1]; FaSSIF 37° C. 24 h)	Solubility in the simulated fluids [2]
CC(=O)OCN1C(=O)/C(=C2\Nc3ccccc3C2=O)c2ccccc21	3%	94%	0%	100%	–
C=CCOC(=O)N1C(=O)/C(=C2\Nc3ccccc3C2=O)c2ccccc21	0%	100%	2%	88%	–
O=C1/C(=C2/C(=O)N(CSc3ccccc3)c3ccccc32)Nc2ccccc21	0%	100%	0%	100%	–
O=C1/C(=C2/C(=O)N(COc3ccccc3)c3ccccc32)Nc2ccccc21	0%	100%	0%	100%	–
O=C1/C(=C2/C(=O)N(CS(=O)(=O)c3ccccc3)c3ccccc32)Nc2ccccc21	0%	100%	0%	100%	–
COCN1C(=O)/C(=C2\Nc3ccccc3C2=O)c2ccccc21	2%	100%	2%	91%	–
O=C1Nc2ccccc2/C1=C1/Nc2ccccc2/C1=N\O	0%	100%	0%	100%	–
O=C(O)CCC(=O)OCN1C(=O)/C(=C2\Nc3ccccc3C2=O)c2ccccc21	0%	100%	0%	100%	–
CCOC(=O)CCC(=O)N1C(=O)/C(=C2\Nc3ccccc3C2=O)c2ccccc21	0%	100%	0%	100%	–
O=C1/C(=C2/C(=O)N(C(=O)N3CCOCC3)c3ccccc32)Nc2ccccc21	0%	100%	0%	100%	–
CCCCCCCCCCC(=O)N1C(=O)/C(=C2\Nc3ccccc3C2=O)c2ccccc21	0%	100%	0%	100%	–
O=C1/C(=C2/C(=O)N(C(=O)CCCN3CCOCC3)c3ccccc32)Nc2ccccc21	0%	100%	0%	100%	–
O=C1/C(=C2/C(=O)N(C(=O)NCCNS(=O)(=O)c3ccc([N+](=O)[O-])cc3)c3ccccc32)Nc2ccccc21	0%	100%	0%	100%	–
CN1CCC(NC(=O)N2C(=O)/C(=C3\Nc4ccccc4C3=O)c3ccccc32)CC1=O (stereo not drawn)	0%	100%	0%	100%	–
CCN(CC)CN1C(=O)/C(=C2\Nc3ccccc3C2=O)c2ccccc21 [Compound 9]	–	–	–	–	soluble in the simulated fluids
CN1CCN(CN2C(=O)/C(=C3\Nc4ccccc4C3=O)c3ccccc32)CC1 [Compound 10]	–	–	–	–	soluble in the simulated fluids
O=C1/C(=C2/C(=O)N(CO)c3ccccc32)Nc2ccccc21 [drawing 219]	13%	87%	100%	0%	–
CCN(CC)CN1C(=O)/C(=C2\Nc3ccccc3C2=O)c2ccccc21 [drawing 221]	100%	0%	100%	0%	–
CN1CCN(CN2C(=O)/C(=C3\Nc4ccccc4C3=O)c3ccccc32)CC1 [drawing 222]	–	–	19%	50%	–
O=C1/C(=C2/C(=O)N(COS(=O)(=O)O)c3ccccc32)Nc2ccccc21 [drawing 224]	–	–	100%	0%	–
O=C1/C(=C2/C(=O)N(C(=O)NC3CCOCC3)c3ccccc32)Nc2ccccc21 [drawing 236]	13%	68%	10%	57%	–

Second part, the compound after the results:

Fraction (percent) of indirubin ([1]; FaSSGF 37° C. 24 h)	Fraction (percent) of starting material (SM) ([1]; FaSSGF 37° C. 24 h)	Fraction (percent) of indirubin ([1]; FaSSIF 37° C. 24 h)	Fraction (percent) of starting material (SM) ([1]; FaSSIF 37° C. 24 h)	Solubility in the simulated fluids [2]	Compound
0%	100%	0%	100%	–	CN(C)CCCCNC(=O)N1C(=O)/C(=C2\Nc3ccccc3C2=O)c2ccccc21
0%	100%	0%	100%	–	CN(C)CCNC(=O)N1C(=O)/C(=C2\Nc3ccccc3C2=O)c2ccccc21
2%	93%	0%	100%	–	CN1CCN(CCNC(=O)N2C(=O)/C(=C3\Nc4ccccc4C3=O)c3ccccc32)CC1
0%	100%	0%	100%	–	CC(=O)NCCNC(=O)N1C(=O)/C(=C2\Nc3ccccc3C2=O)c2ccccc21
0%	100%	1%	94%	–	CN(C)CCCNC(=O)N1C(=O)/C(=C2\Nc3ccccc3C2=O)c2ccccc21
0%	100%	0%	100%	–	CS(=O)(=O)NCCNC(=O)N1C(=O)/C(=C2\Nc3ccccc3C2=O)c2ccccc21
0%	100%	0%	100%	–	CCOC(=O)N1C(=O)/C(=C2\Nc3ccccc3C2=O)c2ccccc21
0%	100%	0%	100%	–	Cl.NCCNC(=O)N1C(=O)/C(=C2\Nc3ccccc3C2=O)c2ccccc21
7%	86%	0%	100%	–	Cl.NCCCNC(=O)N1C(=O)/C(=C2\Nc3ccccc3C2=O)c2ccccc21
1%	93%	0%	100%	–	O=C1/C(=C2/C(=O)N(C(=O)NCCNS(=O)(=O)C(F)(F)F)c3ccccc32)Nc2ccccc21
